Measured values as given in patent US20260250318A1, “COMPOSITIONS AND METHODS FOR CROSSING THE BLOOD BRAIN BARRIER” (VOYAGER THERAPEUTICS, INC., priority 2022, published 2026).

What was measured:
Conditions in all cases: synthetic library passage 3, intravenous, relative to wild-type AAV9
[1] = tested on: brain, spinal cord, and DRG of the NHPs; assay: NGS fold enrichment of synthetic library (passage 3) in NHPs, first cross-species screen; type: in vivo, cynomolgus macaques (Macaca fascicularis)
Procedure: (§1) After creation of the synthetic library with the sub-selected variants, the synthetic library was screened (passage 3) in two NHPs (2-4 years of age) and two strains of mice, BALB/c (n=3, 6-8 weeks of age) and C57Bl/6 mice (n=3, 6-8 weeks of age), in a first cross-species evolution screen. The animals were injected intravenously with the synthetic library. After a period in vivo, (e.g., 28-days) RNA was extracted from nervous tissue, e.g., brain, spinal cord, and DRG of the NHPs and the brains of mice. Following RNA recovery and RT-PCR amplification, a systematic NGS enrichment analysis was performed, and the peptides comprised within the variants were identified and the capsid enrichment ratio for each variant compared to the wild-type AAV9 control was calculated (fold enrichment relative to wild-type AAV9) (Table 9). […] All animals were dosed intravenously at […] across the screen.

brain [2] = assay: NGS fold enrichment of synthetic library (passage 3) in C57Bl/6 mice, first cross-species screen; type: in vivo
Procedure: as §1

brain [3] = assay: NGS fold enrichment of synthetic library (passage 3) in BALB/c mice, first cross-species screen; type: in vivo
Procedure: as §1

[4] = RNA from spinal cord of NHPs, NGS
[5] = RNA from brain of C57Bl/6 mice, NGS
[6] = RNA from brain of BALB/c mice, NGS

In the case of GSGQNQQTGQATHN, the “Fold enrichment over AAV9 in the brain of NHPs” value ([1]; RNA NGS, brain of NHPs) is reported as 0.996 fold, the “Fold enrichment over AAV9 in the spinal cord of NHPs” value ([1]; RNA NGS, spinal cord of NHPs) is reported as 2.199 fold and the “Fold enrichment over AAV9 in the brain of Mice (C57Bl/6)” value (shortened to “Fold enrichment over AAV9 … (C57Bl/6)”) (brain [2]; RNA NGS, brain of C57Bl/6 mice) is reported as 0.877 fold. For the same sequence, the “Fold enrichment over AAV9 in the brain of Mice (BALB/c)” value (“Fold enrichment over AAV9 … (BALB/c)” for short) (brain [3]; RNA NGS, brain of BALB/c mice) was 0.527 fold.

With GSGQNHGLQSGQQT the “Fold enrichment over AAV9 in the brain of NHPs” value ([1]; RNA NGS, brain of NHPs) was 1.530 fold, the “Fold enrichment over AAV9 in the spinal cord of NHPs” value ([1]; RNA NGS, spinal cord of NHPs) was 4.960 fold and the “Fold enrichment over AAV9 … (C57Bl/6)” value (brain [2]; RNA NGS, brain of C57Bl/6 mice) was 0.938 fold. For the same sequence, the “Fold enrichment over AAV9 … (BALB/c)” value (brain [3]; RNA NGS, brain of BALB/c mice) was 0.779 fold.

In the case of GSGQNERHLVLQQT, the “Fold enrichment over AAV9 in the brain of NHPs” value ([1]; RNA NGS, brain of NHPs) is reported as 1.019 fold, the “Fold enrichment over AAV9 in the spinal cord of NHPs” value ([1]; RNA NGS, spinal cord of NHPs) is reported as 5.354 fold and the “Fold enrichment over AAV9 … (C57Bl/6)” value (brain [2]; RNA NGS, brain of C57Bl/6 mice) is reported as 0.416 fold. For the same sequence, the “Fold enrichment over AAV9 … (BALB/c)” value (brain [3]; RNA NGS, brain of BALB/c mice) was 0.150 fold.

For GKSFVPQSGQNQQT, the “Fold enrichment over AAV9 in the brain of NHPs” value ([1]; RNA NGS, brain of NHPs) was 1.489 fold, the “Fold enrichment over AAV9 in the spinal cord of NHPs” value ([1]; RNA NGS, spinal cord of NHPs) was 2.502 fold and the “Fold enrichment over AAV9 … (C57Bl/6)” value (brain [2]; RNA NGS, brain of C57Bl/6 mice) was 1.798 fold. For the same sequence, the “Fold enrichment over AAV9 … (BALB/c)” value (brain [3]; RNA NGS, brain of BALB/c mice) was 0.430 fold.

In the case of GRAPTNLSGQNQQT, the “Fold enrichment over AAV9 in the brain of NHPs” value ([1]; RNA NGS, brain of NHPs) is reported as 1.118 fold, the “Fold enrichment over AAV9 in the spinal cord of NHPs” value ([1]; RNA NGS, spinal cord of NHPs) is reported as 0.687 fold and the “Fold enrichment over AAV9 … (C57Bl/6)” value (brain [2]; RNA NGS, brain of C57Bl/6 mice) is reported as 0.757 fold. The “Fold enrichment over AAV9 … (BALB/c)” value (brain [3]; RNA NGS, brain of BALB/c mice) was 0.169 fold.

In the case of GSGSPHVRMQNQQT, the “Fold enrichment over AAV9 in the brain of NHPs” value ([1]; RNA NGS, brain of NHPs) is reported as 11.574 fold, the “Fold enrichment over AAV9 in the spinal cord of NHPs” value ([1]; RNA NGS, spinal cord of NHPs) is reported as 6.764 fold and the “Fold enrichment over AAV9 … (C57Bl/6)” value (brain [2]; RNA NGS, brain of C57Bl/6 mice) is reported as 9.121 fold. For the same sequence, the “Fold enrichment over AAV9 … (BALB/c)” value (brain [3]; RNA NGS, brain of BALB/c mice) was 10.076 fold.

GSGQYASSIPNQQT was tested, and the “Fold enrichment over AAV9 in the brain of NHPs” value ([1]; RNA NGS, brain of NHPs) was 2.346 fold, the “Fold enrichment over AAV9 in the spinal cord of NHPs” value ([1]; RNA NGS, spinal cord of NHPs) was 3.321 fold and the “Fold enrichment over AAV9 … (C57Bl/6)” value (brain [2]; RNA NGS, brain of C57Bl/6 mice) was 1.022 fold. The “Fold enrichment over AAV9 … (BALB/c)” value (brain [3]; RNA NGS, brain of BALB/c mice) was 0.489 fold.

GSGQTVVRIANQQT was tested, and the “Fold enrichment over AAV9 in the brain of NHPs” value ([1]; RNA NGS, brain of NHPs) was 1.046 fold, the “Fold enrichment over AAV9 in the spinal cord of NHPs” value ([1]; RNA NGS, spinal cord of NHPs) was 4.156 fold and the “Fold enrichment over AAV9 … (C57Bl/6)” value (brain [2]; RNA NGS, brain of C57Bl/6 mice) was 0.661 fold. For the same sequence, the “Fold enrichment over AAV9 … (BALB/c)” value (brain [3]; RNA NGS, brain of BALB/c mice) was 0.390 fold.

In the case of GQLGSVGSGQDQQT, the “Fold enrichment over AAV9 in the brain of NHPs” value ([1]; RNA from brain of NHPs, NGS) is reported as 1.196 fold, the “Fold enrichment over AAV9 in the spinal cord of NHPs” value [1, 4] is reported as 0.000 fold and the “Fold enrichment over AAV9 … (C57Bl/6)” value (brain [2]; [5]) is reported as 1.020 fold. The “Fold enrichment over AAV9 … (BALB/c)” value (brain [3]; [6]) was 0.437 fold.

For GGRIVSLSGQNQQT, the “Fold enrichment over AAV9 in the brain of NHPs” value ([1]; RNA NGS, brain of NHPs) was 1.766 fold, the “Fold enrichment over AAV9 in the spinal cord of NHPs” value ([1]; RNA NGS, spinal cord of NHPs) was 4.936 fold and the “Fold enrichment over AAV9 … (C57Bl/6)” value (brain [2]; RNA NGS, brain of C57Bl/6 mice) was 1.161 fold. For the same sequence, the “Fold enrichment over AAV9 … (BALB/c)” value (brain [3]; RNA NGS, brain of BALB/c mice) was 0.847 fold.

In the case of GSGQNQKILTLDQT, the “Fold enrichment over AAV9 in the brain of NHPs” value ([1]; RNA NGS, brain of NHPs) is reported as 1.080 fold, the “Fold enrichment over AAV9 in the spinal cord of NHPs” value ([1]; RNA NGS, spinal cord of NHPs) is reported as 0.371 fold and the “Fold enrichment over AAV9 … (C57Bl/6)” value (brain [2]; RNA NGS, brain of C57Bl/6 mice) is reported as 0.291 fold. For the same sequence, the “Fold enrichment over AAV9 … (BALB/c)” value (brain [3]; RNA NGS, brain of BALB/c mice) was 0.314 fold.

In the case of GSLHHDNHGQNQQT, the “Fold enrichment over AAV9 in the brain of NHPs” value ([1]; RNA NGS, brain of NHPs) is reported as 1.976 fold, the “Fold enrichment over AAV9 in the spinal cord of NHPs” value ([1]; RNA NGS, spinal cord of NHPs) is reported as 0.980 fold and the “Fold enrichment over AAV9 … (C57Bl/6)” value (brain [2]; RNA NGS, brain of C57Bl/6 mice) is reported as 0.968 fold. For the same sequence, the “Fold enrichment over AAV9 … (BALB/c)” value (brain [3]; RNA NGS, brain of BALB/c mice) was 0.463 fold.

With GSGQNQQTGLRQQT the “Fold enrichment over AAV9 in the brain of NHPs” value ([1]; RNA NGS, brain of NHPs) was 1.533 fold, the “Fold enrichment over AAV9 in the spinal cord of NHPs” value ([1]; RNA NGS, spinal cord of NHPs) was 2.120 fold and the “Fold enrichment over AAV9 … (C57Bl/6)” value (brain [2]; RNA NGS, brain of C57Bl/6 mice) was 1.217 fold. The “Fold enrichment over AAV9 … (BALB/c)” value (brain [3]; RNA NGS, brain of BALB/c mice) was 1.103 fold.

In the case of GSGQKQERAVSKQT, the “Fold enrichment over AAV9 in the brain of NHPs” value ([1]; RNA from brain of NHPs, NGS) is reported as 1.277 fold, the “Fold enrichment over AAV9 in the spinal cord of NHPs” value [1, 4] is reported as 0.000 fold and the “Fold enrichment over AAV9 … (C57Bl/6)” value (brain [2]; [5]) is reported as 1.174 fold. The “Fold enrichment over AAV9 … (BALB/c)” value (brain [3]; [6]) was 0.732 fold.

GSGQTSGLKQNQQT was tested, and the “Fold enrichment over AAV9 in the brain of NHPs” value ([1]; RNA NGS, brain of NHPs) was 1.968 fold, the “Fold enrichment over AAV9 in the spinal cord of NHPs” value ([1]; RNA NGS, spinal cord of NHPs) was 3.927 fold and the “Fold enrichment over AAV9 … (C57Bl/6)” value (brain [2]; RNA NGS, brain of C57Bl/6 mice) was 0.394 fold. The “Fold enrichment over AAV9 … (BALB/c)” value (brain [3]; RNA NGS, brain of BALB/c mice) was 0.334 fold.

With GTHPYTSSGQNQQT the “Fold enrichment over AAV9 in the brain of NHPs” value ([1]; RNA NGS, brain of NHPs) was 2.775 fold, the “Fold enrichment over AAV9 in the spinal cord of NHPs” value ([1]; RNA NGS, spinal cord of NHPs) was 1.684 fold and the “Fold enrichment over AAV9 … (C57Bl/6)” value (brain [2]; RNA NGS, brain of C57Bl/6 mice) was 0.758 fold. The “Fold enrichment over AAV9 … (BALB/c)” value (brain [3]; RNA NGS, brain of BALB/c mice) was 0.471 fold.

With GSGQNQQTALYNNT the “Fold enrichment over AAV9 in the brain of NHPs” value ([1]; RNA from brain of NHPs, NGS) was 1.307 fold, the “Fold enrichment over AAV9 in the spinal cord of NHPs” value [1, 4] was 0.862 fold and the “Fold enrichment over AAV9 … (C57Bl/6)” value (brain [2]; [5]) was 0.660 fold. The “Fold enrichment over AAV9 … (BALB/c)” value (brain [3]; [6]) was 0.726 fold.

For GSGQNQHHSVSQQT, the “Fold enrichment over AAV9 in the brain of NHPs” value ([1]; RNA NGS, brain of NHPs) was 1.623 fold, the “Fold enrichment over AAV9 in the spinal cord of NHPs” value ([1]; RNA NGS, spinal cord of NHPs) was 3.700 fold and the “Fold enrichment over AAV9 … (C57Bl/6)” value (brain [2]; RNA NGS, brain of C57Bl/6 mice) was 0.605 fold. The “Fold enrichment over AAV9 … (BALB/c)” value (brain [3]; RNA NGS, brain of BALB/c mice) was 0.334 fold.

For GSLLISTSGQNQQT, the “Fold enrichment over AAV9 in the brain of NHPs” value ([1]; RNA NGS, brain of NHPs) was 1.919 fold, the “Fold enrichment over AAV9 in the spinal cord of NHPs” value ([1]; RNA NGS, spinal cord of NHPs) was 5.763 fold and the “Fold enrichment over AAV9 … (C57Bl/6)” value (brain [2]; RNA NGS, brain of C57Bl/6 mice) was 1.488 fold. The “Fold enrichment over AAV9 … (BALB/c)” value (brain [3]; RNA NGS, brain of BALB/c mice) was 0.808 fold.
